Results from patent US9073876B2, “Flap modulators” (JANSSEN PHARMACEUTICA NV, priority 2013, dated 2015).

What was measured:
human FLAP = human FLAP (Homo sapiens (Human), UniProt P20292); experiment: FLAP binding assay (HTRF); conditions: human FLAP-containing membranes, HTRF format; average of two assay plates, duplicates; read-out: FLAP Binding wild type HTRF Ki
Method in brief: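 Read-out is the HTRF ratio. Each reported figure averages two assay plates on which samples were tested in duplicate.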

[1] = test system: leukotriene pathway in human whole blood (LTB4 levels); experiment: Human whole blood assay (LTB4); type: cell-based; conditions: human whole blood diluted 1:1 in RPMI, stimulated with calcium ionophore A23187; single replicate
Method in brief: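 Heparinised human whole blood diluted 1:1 in RPMI, pre-incubated 15 min at 37° Celsius with compound, then stimulated with A23187 (7 μg/mL) for 30 min at 37° Celsius. Plasma LTB4 measured by immunoassay kit; IC50 from 4-parameter fit; single replicate per plate, at least one healthy donor.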

human FLAP, sequence (P20292 whole entry): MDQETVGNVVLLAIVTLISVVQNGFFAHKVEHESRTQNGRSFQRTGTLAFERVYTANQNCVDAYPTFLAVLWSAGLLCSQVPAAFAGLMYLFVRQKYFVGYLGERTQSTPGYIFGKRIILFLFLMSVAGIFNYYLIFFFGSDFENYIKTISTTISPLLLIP

Compound | Ki (human FLAP) [nM] | IC50 [1] [nM]
Nc1cnc(-c2ccc(C3CCC3)c(OCc3ccccc3C(=O)O)c2F)cn1 [Example 46, 2-{[3-(5-Aminopyrazin-2-yl)-6-cyclobutyl-2-fluorophenoxy]methyl}benzoic acid] | 8 | 5620
Cn1ccc(COc2c(C3CCC3)ccc(-c3cnc(N)cn3)c2F)n1 [Example 47, 5-{4-Cyclobutyl-2-fluoro-3-[(1-methyl-1H-pyrazol-3-yl)methoxy]phenyl}pyrazin-2-amine] | 42 | 300
Cc1ccnc(Oc2c(C3CCC3)ccc(-c3cnc(N)cn3)c2F)n1 [Example 69, 5-{4-cyclobutyl-2-fluoro-3-[(4-methylpyrimidin-2-yl)oxy]phenyl}pyrazin-2-amine] | 30 | 73.9
Nc1cnc(-c2ccc(C3CCC3)c(OCC3CC3)c2F)cn1 [Example 72, 5-[4-Cyclobutyl-3-(cyclopropylmethoxy)-2-fluorophenyl]pyrazin-2-amine] | 18 | 737
COc1ccc(S(F)(F)(F)(F)F)cc1COc1c(C2CCC2)ccc(-c2cnc(N)cn2)c1F [Example 76, 5-(4-Cyclobutyl-2-fluoro-3-{[2-methoxy-5-(pentafluoro-lambda~6~- sulfanyl)benzyl]oxy}phenyl)pyrazin-2-amine] | 250 | 1770
Nc1cnc(-c2ccc(C3CCC3)c(OCc3ccc(S(F)(F)(F)(F)F)cc3F)c2F)cn1 [Example 78, 5-(4-Cyclobutyl-2-fluoro-3-{[2-fluoro-4-(pentafluoro-lambda~6~- sulfanyl)benzyl]oxy}phenyl)pyrazin-2-amine] | 173 | 1290
Nc1cnc(-c2ccc(C3CCC3)c(OCc3ccc(S(F)(F)(F)(F)F)cc3)c2F)cn1 [Example 79, 5-(4-Cyclobutyl-2-fluoro-3-{[4-(pentafluoro-lambda~6~- sulfanyl)benzyl]oxy}phenyl)pyrazin-2-amine] | 250 | 2230
Nc1cnc(-c2ccc(C3CCC3)c(OCc3cccc(S(F)(F)(F)(F)F)c3)c2F)cn1 [Example 80, 5-(4-Cyclobutyl-2-fluoro-3-{[3-(pentafluoro-lambda~6~- sulfanyl)benzyl]oxy}phenyl)pyrazin-2-amine] | 304 | 3290
Nc1cnc(-c2ccc(C3CCC3)c(OCc3ccccc3)c2F)cn1 [Example 83, 5-[3-(Benzyloxy)-4-cyclobutyl-2-fluorophenyl]-pyrazin-2-amine] | 37 | 605
Nc1cnc(-c2ccc(C3CCC3)c(OCCc3ccc(C(=O)O)cc3)c2F)cn1 [Example 84, 4-{2-[3-(5-Aminopyrazin-2-yl)-6-cyclobutyl-2-fluorophenoxy]ethyl}benzoic acid] | 70 | 886
Cc1cc(N)nc(Oc2c(C3CCC3)ccc(-c3cnc(N)cn3)c2F)n1 [Example 86, 2-[3-(5-Aminopyrazin-2-yl)-6-cyclobutyl-2-fluorophenoxy]-6-methylpyrimidin-4-amine] | 5 | 35.1
Nc1cnc(-c2ccc(C3CCC3)c(Oc3nccc(-c4ccccc4)n3)c2F)cn1 [Example 87, 5-{4-Cyclobutyl-2-fluoro-3-[(4-phenylpyrimidin-2-yl)oxy]phenyl}pyrazin-2-amine] | 1 | 6.7
CSc1ccnc(Oc2c(C3CCC3)ccc(-c3cnc(N)cn3)c2F)n1 [Example 88, 5-(4-Cyclobutyl-2-fluoro-3-{[4-(methylsulfanyl)pyrimidin-2-yl]oxy}phenyl)pyrazin-2-amine] | 4 | 36.1
Cc1cc(C)nc(Oc2c(C3CCC3)ccc(-c3cnc(N)cn3)c2F)n1 [Example 89, 5-{4-Cyclobutyl-3-[(4,6-dimethylpyrimidin-2-yl)oxy]-2-fluorophenyl}pyrazin-2-amine] | 4 | 22.2
Nc1cnc(-c2ccc(C3CCC3)c(Oc3nccc(-c4cccs4)n3)c2F)cn1 [Example 91, 5-{4-Cyclobutyl-2-fluoro-3-[(4-thiophen-2-ylpyrimidin-2-yl)oxy]phenyl}pyrazin-2-amine] | 1 | 4.8
COc1ccnc(Oc2c(C3CCC3)ccc(-c3cnc(N)cn3)c2F)n1 [Example 93, 5-{4-Cyclobutyl-2-fluoro-3-[(4-methoxypyrimidin-2-yl)oxy]phenyl}pyrazin-2-amine] | 3 | 30.8

Further lines, results first:

Ki (human FLAP) [nM] | IC50 [1] [nM] | Compound
27 | 101 | COc1cnc(Oc2c(C3CCC3)ccc(-c3cnc(N)cn3)c2F)nc1 [Example 94, 5-{4-Cyclobutyl-2-fluoro-3-[(5-methoxypyrimidin-2-yl)oxy]phenyl}pyrazin-2-amine]
5 | > 1000 | CS(=O)(=O)c1ccnc(Oc2c(C3CCC3)ccc(-c3cnc(N)cn3)c2F)n1 [Example 95, 5-(4-Cyclobutyl-2-fluoro-3-{[4-(methylsulfonyl)pyrimidin-2-yl]oxy}phenyl)pyrazin-2-amine]
7 | 33.8 | Cc1cc(Oc2c(C3CCC3)ccc(-c3cnc(N)cn3)c2F)nc(N)n1 [Example 96, 4-[3-(5-aminopyrazin-2-yl)-6-cyclobutyl-2-fluorophenoxy]-6-methylpyrimidin-2-amine]
32 | 153 | COc1cc(Oc2c(C3CCC3)ccc(-c3cnc(N)cn3)c2F)ncn1 [Example 97, 5-{4-Cyclobutyl-2-fluoro-3-[(6-methoxypyrimidin-4-yl)oxy]phenyl}pyrazin-2-amine]
8 | 175 | Nc1cnc(-c2ccc(C3CCC3)c(Oc3cc(O)ncn3)c2F)cn1 [Example 98, 6-[3-(5-Aminopyrazin-2-yl)-6-cyclobutyl-2-fluorophenoxy]pyrimidin-4-ol]
6 | 40.7 | COc1cc(Oc2c(C3CCC3)ccc(-c3cnc(N)cn3)c2F)nc(N)n1 [Example 99, 4-[3-(5-Aminopyrazin-2-yl)-6-cyclobutyl-2-fluorophenoxy]-6-methoxypyrimidin-2-amine]
1 | 12.6 | COc1nc(N)cc(Oc2c(C3CCC3)ccc(-c3cnc(N)cn3)c2F)n1 [Example 100, 6-[3-(5-Aminopyrazin-2-yl)-6-cyclobutyl-2-fluorophenoxy]-2-methoxypyrimidin-4-amine]
23 | 914 | N#Cc1ccc(Oc2c(C3CCC3)ccc(-c3cnc(N)cn3)c2F)cc1 [Example 101, 4-[3-(5-Aminopyrazin-2-yl)-6-cyclobutyl-2-fluorophenoxy]benzonitrile]
2 | 103 | Nc1cnc(-c2ccc(C3CCC3)c(Oc3cccc(C(F)(F)F)n3)c2F)cn1 [Example 102, 5-(4-Cyclobutyl-2-fluoro-3-{[6-(trifluoromethyl)pyridin-2-yl]oxy}phenyl)pyrazin-2-amine]
35 | 675 | COC(=O)c1ccc(Oc2c(C3CCC3)ccc(-c3cnc(N)cn3)c2F)cc1 [Example 103, Methyl 4-[3-(5-aminopyrazin-2-yl)-6-cyclobutyl-2-fluorophenoxy]benzoate]
100 | 2810 | Nc1cnc(-c2ccc(C3CCC3)c(Oc3ncc(C(F)(F)F)cn3)c2F)cn1 [Example 104, 5-(4-Cyclobutyl-2-fluoro-3-{[5-(trifluoromethyl)pyrimidin-2-yl]oxy}phenyl)pyrazin-2-amine]
